# Test results taken from US6737383B1, “Herbicidal oxadiazolidines” (priority 1999, dated 2004).
# Legend:
# bedstraw = assay: Test B pre/postemergence bedstraw; type: in vivo, Galium aparine
# Outline: (§1)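 Test chemicals in a non-phytotoxic solvent mixture with surfactant were sprayed preemergence onto planted seeds and postemergence onto plants 2 to 18 cm tall (1- to 4-leaf stage). After twelve to sixteen days in a greenhouse, injury was visually rated against untreated controls from 0 (no effect) to 10 (complete control).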
# blackgrass = assay: Test B pre/postemergence blackgrass; type: in vivo, Alopecurus myosuroides
# Outline: as §1
# surinam grass = assay: Test B pre/postemergence surinam grass; type: in vivo, Brachiaria decumbens
# Outline: as §1
# cocklebur = assay: Test B pre/postemergence cocklebur; type: in vivo, Xanthium strumarium
# Outline: as §1
# corn = assay: Test B pre/postemergence corn; type: in vivo, Zea mays
# Outline: as §1
# crabgrass = assay: Test B pre/postemergence crabgrass; type: in vivo, Digitaria sanguinalis
# Outline: as §1
# giant foxtail = assay: Test B pre/postemergence giant foxtail; type: in vivo, Setaria faberii
# Outline: as §1
# pigweed = assay: Test B pre/postemergence pigweed; type: in vivo, Amaranthus retroflexus
# Outline: as §1
# soybean = assay: Test B pre/postemergence soybean; type: in vivo, Glycine max
# Outline: as §1
# sugar beet = assay: Test B pre/postemergence sugar beet; type: in vivo, Beta vulgaris
# Outline: as §1
# velvetleaf = assay: Test B pre/postemergence velvetleaf; type: in vivo, Abutilon theophrasti
# Outline: as §1
# wild oat = assay: Test B pre/postemergence wild oat; type: in vivo, Avena fatua
# Outline: as §1
# purple nutsedge = assay: Test B pre/postemergence purple nutsedge; type: in vivo, Cyperus rotundus
# Outline: as §1
# rice = assay: Test B flood test rice; type: in vivo, Oryza sativa
# Outline: (§2)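 Flood test on plants grown to the 2-leaf stage; treated plants kept in greenhouse twelve to sixteen days, then visually rated against controls on a 0 (no effect) to 10 (complete control) scale.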
# smallflower flatsedge = assay: Test B flood test smallflower flatsedge; type: in vivo, Cyperus difformis
# Outline: as §2
# bamyardgrass = assay: Test B flood test barnyardgrass; type: in vivo, Echinochloa crus-galli
# Outline: as §2
# [1] = Preemergence, Rate 62 g/ha, scale of 0 to 10 where 0 is no effect and 10 is complete control
# [2] = Preemergence, Rate 250 g/ha, scale of 0 to 10 where 0 is no effect and 10 is complete control
# [3] = Preemergence, Rate 500 g/ha, scale of 0 to 10 where 0 is no effect and 10 is complete control
# [4] = Rate 62 g/ha, Postemergence, scale of 0 to 10 where 0 is no effect and 10 is complete control
# [5] = Rate 125 g/ha, Postemergence, scale 0 to 10
# [6] = Rate 125 g/ha, Preemergence, scale of 0 to 10 where 0 is no effect and 10 is complete control
# [7] = Rate 500 g/ha, Postemergence, scale 0 to 10
# [8] = Rate 62 g/ha, headed Pre-emergence (flood test species), scale 0 to 10 (0 no effect, 10 complete control)
# [9] = Rate 125 g/ha, Pre-emergence, flood test species, scale 0 to 10 where 0 is no effect and 10 is complete control
# [10] = Rate 250 g/ha, Pre-emergence, flood-test species, scale 0 to 10, 0 is no effect, 10 is complete control
# [11] = Rate 500 g/ha, Pre-emergence, flood test species, scale 0 to 10 (0 no effect, 10 complete control)
structure (smiles),measurement,setting,value
C#CCn1c(=O)on(C(=O)N(c2ccc(F)cc2)C(C)C)c1=O [Compound 212],Bedstraw plant response rating,bedstraw; [1],0
same,Bedstraw plant response rating,bedstraw; [2],0
same,"Plant response rating, Bedstraw",bedstraw; [3],10
same,Bedstraw plant response rating,bedstraw; [4],0
same,Bedstraw plant response rating,bedstraw; [5],0
same,Bedstraw plant response rating,bedstraw; [6],0
same,"Plant response rating (0 to 10; 0 is no effect, 10 is complete control), Bedstraw","bedstraw; Rate 250 g/ha, Postemergence",2
same,Bedstraw plant response rating,bedstraw; [7],7
same,Blackgrass plant response rating,blackgrass; [1],4
same,Blackgrass plant response rating,blackgrass; [2],7
same,"Plant response rating, Blackgrass",blackgrass; [3],9
same,Blackgrass plant response rating,blackgrass; [4],6
same,Blackgrass plant response rating,blackgrass; [5],6
same,Blackgrass plant response rating,blackgrass; [6],4
same,"Plant response rating (0 to 10; 0 is no effect, 10 is complete control), Blackgrass","blackgrass; Rate 250 g/ha, Postemergence",6
same,Blackgrass plant response rating,blackgrass; [7],7
same,B. signalgrass plant response rating,surinam grass; [1],0
same,B. signalgrass plant response rating,"surinam grass; Preemergence, Rate 250 g/ha, scale 0 to 10, 0 is no effect, 10 is complete control",5
same,"Plant response rating, B. signalgrass",surinam grass; [3],5
same,B. signalgrass plant response rating,surinam grass; [4],2
same,B. signalgrass plant response rating,"surinam grass; Rate 125 g/ha, Postemergence, scale 0 (no effect) to 10 (complete control)",4
same,B. signalgrass plant response rating,surinam grass; [6],1
same,"Plant response rating (0 to 10; 0 is no effect, 10 is complete control), B. signalgrass","surinam grass; Rate 250 g/ha, Postemergence",7
same,B. signalgrass plant response rating,"surinam grass; Rate 500 g/ha, Postemergence, scale 0 to 10, 0 no effect, 10 complete control",7
same,Cocklebur plant response rating,cocklebur; [1],0
same,Cocklebur plant response rating,cocklebur; [2],0
same,"Plant response rating, Cocklebur",cocklebur; [3],0
same,Cocklebur plant response rating,cocklebur; [4],2
same,Cocklebur plant response rating,cocklebur; [5],2
same,"Plant response rating (0 to 10; 0 is no effect, 10 is complete control), Cocklebur","cocklebur; Rate 250 g/ha, Postemergence",2
same,Cocklebur plant response rating,cocklebur; [7],5
same,Corn plant response rating,corn; [1],0
same,Corn plant response rating,corn; [2],0
same,"Plant response rating, Corn",corn; [3],0
same,Corn plant response rating,corn; [4],0
same,Corn plant response rating,corn; [5],0
same,Corn plant response rating,corn; [6],0
same,"Plant response rating (0 to 10; 0 is no effect, 10 is complete control), Corn","corn; Rate 250 g/ha, Postemergence",0
same,Corn plant response rating,corn; [7],0
same,Crabgrass plant response rating,crabgrass; [1],0
same,Crabgrass plant response rating,crabgrass; [2],5
same,"Plant response rating, Crabgrass",crabgrass; [3],5
same,Crabgrass plant response rating,crabgrass; [4],6
same,Crabgrass plant response rating,crabgrass; [5],6
same,Crabgrass plant response rating,crabgrass; [6],4
same,"Plant response rating (0 to 10; 0 is no effect, 10 is complete control), Crabgrass","crabgrass; Rate 250 g/ha, Postemergence",8
same,Crabgrass plant response rating,crabgrass; [7],9
same,Giant foxtail plant response rating,giant foxtail; [1],2
same,Giant foxtail plant response rating,giant foxtail; [2],9
same,"Plant response rating, Giant foxtail",giant foxtail; [3],10
same,Giant foxtail plant response rating,giant foxtail; [4],4
same,Giant foxtail plant response rating,giant foxtail; [5],6
same,Giant foxtail plant response rating,giant foxtail; [6],4
same,"Plant response rating (0 to 10; 0 is no effect, 10 is complete control), Giant foxtail","giant foxtail; Rate 250 g/ha, Postemergence",6
same,Giant foxtail plant response rating,giant foxtail; [7],9
same,Redroot pigweed plant response rating,pigweed; [1],9
same,Redroot pigweed plant response rating,pigweed; [2],10
same,"Plant response rating, Redroot pigweed",pigweed; [3],10
same,Redroot pigweed plant response rating,pigweed; [4],0
same,Redroot pigweed plant response rating,pigweed; [5],5
same,Redroot pigweed plant response rating,pigweed; [6],9
same,Redroot pigweed plant response rating,pigweed; [7],7
same,Soybean plant response rating,soybean; [1],0
same,Soybean plant response rating,soybean; [2],0
same,"Plant response rating, Soybean",soybean; [3],0
same,Soybean plant response rating,soybean; [4],1
same,Soybean plant response rating,soybean; [5],2
same,Soybean plant response rating,soybean; [6],0
same,"Plant response rating (0 to 10; 0 is no effect, 10 is complete control), Soybean","soybean; Rate 250 g/ha, Postemergence",3
same,Soybean plant response rating,soybean; [7],4
same,Sugarbeets plant response rating,sugar beet; [1],0
same,Sugarbeets plant response rating,sugar beet; [2],5
same,"Plant response rating, Sugarbeets",sugar beet; [3],8
same,Sugarbeets plant response rating,sugar beet; [4],0
same,Sugarbeets plant response rating,sugar beet; [5],0
same,Sugarbeets plant response rating,sugar beet; [6],5
same,"Plant response rating (0 to 10; 0 is no effect, 10 is complete control), Sugarbeets","sugar beet; Rate 250 g/ha, Postemergence",0
same,Sugarbeets plant response rating,sugar beet; [7],5
same,Velvetleaf plant response rating,velvetleaf; [1],2
same,Velvetleaf plant response rating,velvetleaf; [2],5
same,"Plant response rating, Velvetleaf",velvetleaf; [3],5
same,Velvetleaf plant response rating,velvetleaf; [4],3
same,Velvetleaf plant response rating,velvetleaf; [5],4
same,"Plant response rating (0 to 10; 0 is no effect, 10 is complete control), Velvetleaf","velvetleaf; Rate 250 g/ha, Postemergence",5
same,Wild oats plant response rating,wild oat; [1],0
same,Wild oats plant response rating,wild oat; [2],3
same,"Plant response rating, Wild oats",wild oat; [3],7
same,Wild oats plant response rating,wild oat; [4],0
same,Wild oats plant response rating,wild oat; [5],0
same,"Plant response rating (0 to 10; 0 is no effect, 10 is complete control), Wild oats","wild oat; Rate 250 g/ha, Postemergence",0
same,Nutsedge plant response rating,purple nutsedge; [1],0
same,Nutsedge plant response rating,purple nutsedge; [2],0
same,"Plant response rating, Nutsedge",purple nutsedge; [3],0
same,Nutsedge plant response rating,purple nutsedge; [4],0
same,Nutsedge plant response rating,purple nutsedge; [5],0
same,Nutsedge plant response rating,purple nutsedge; [6],0
same,"Plant response rating (0 to 10; 0 is no effect, 10 is complete control), Nutsedge","purple nutsedge; Rate 250 g/ha, Postemergence",0
same,Nutsedge plant response rating,purple nutsedge; [7],0
same,Rice plant response rating,rice; [8],0
same,Rice plant response rating,rice; [9],0
same,Rice plant response rating,rice; [10],0
same,Rice plant response rating,rice; [11],0
same,S. Flatsedge plant response rating,smallflower flatsedge; [8],0
same,S. Flatsedge plant response rating,smallflower flatsedge; [9],0
same,S. Flatsedge plant response rating,smallflower flatsedge; [10],0
same,S. Flatsedge plant response rating,smallflower flatsedge; [11],0
same,Barnyardgrass plant response rating,bamyardgrass; [8],0
same,Barnyardgrass plant response rating,bamyardgrass; [9],0
same,Barnyardgrass plant response rating,bamyardgrass; [10],0
same,Barnyardgrass plant response rating,bamyardgrass; [11],0
